Where two headings read alike, the source gives them in different places.
Tests used:
[1] = test system: lipids of Neuro2a cells; assay: Untargeted metabolomics (lipidomic profiling) of Neuro2a cells; format: cell-based, mouse; settings: 10 μM, 6 h
Method: Discovery metabolite profiling was performed as described by Saghatelian et al., “Assignment of endogenous substrates to enzymes by global metabolite profiling,” Biochemistry 43:14332-14339 (2004) with several modifications. […] The media from the cells was removed and cells were washed with DPBS (2×5.0 mL) before adding freshly prepared media solutions containing vehicle or compound. After incubating for 6 h at 37° C. and subsequent removal of the media, the cells were harvested by scrapping in cold DPBS (3 mL) and pelleted by centrifugation in glass vials. The pellets were washed once with cold DPBS (3 mL) and then cold […] (2:1) (3 mL) was added. After vortexing, the vials were centrifuged (3,000×g, 10 min, 4° C.) and the bottom (organic) layer was transferred to a new glass vial and concentrated under a stream of N2. Samples were stored at −80° C. until the day of analysis when they were reconstituted in Mobile Phase A (100 μL, see below).
Lipid extracts were analyzed by LC/MS in both positive and negative modes using an Agilent 6520 QTOF instrument and LC separation performed on a Kinetex reversed phase C18 column (50×4.6 mm, 2.6 μm particle size, 100Å). Mobile phase A was composed of 5:1:4 isopropanol:methanol:water and Mobile phase B was composed of 99:1 isopropanol:water. Both mobile phases also contained 0.1% AcOH and NH4OAc (5 mM) to facilitate ionization and LC separation. […] To minimize carryover, LC solvents were cycled between 100% Mobile Phase A and 100% Mobile Phase B over 5 min after each run. Data analysis was performed using XCMS (Smith et al., 2006) software which is freely available online (http://xcmsonline.scripps.edu).

[2] = target: AEA-DA lipid probe targets in Neuro2a cells (Mus musculus, UniProt P21619); settings: protein Lmnb2; Neuro2a cells; competitor 50 μM
Chain of AEA-DA lipid probe targets in Neuro2a cells (Mus musculus, UniProt P21619) (P21619 whole entry): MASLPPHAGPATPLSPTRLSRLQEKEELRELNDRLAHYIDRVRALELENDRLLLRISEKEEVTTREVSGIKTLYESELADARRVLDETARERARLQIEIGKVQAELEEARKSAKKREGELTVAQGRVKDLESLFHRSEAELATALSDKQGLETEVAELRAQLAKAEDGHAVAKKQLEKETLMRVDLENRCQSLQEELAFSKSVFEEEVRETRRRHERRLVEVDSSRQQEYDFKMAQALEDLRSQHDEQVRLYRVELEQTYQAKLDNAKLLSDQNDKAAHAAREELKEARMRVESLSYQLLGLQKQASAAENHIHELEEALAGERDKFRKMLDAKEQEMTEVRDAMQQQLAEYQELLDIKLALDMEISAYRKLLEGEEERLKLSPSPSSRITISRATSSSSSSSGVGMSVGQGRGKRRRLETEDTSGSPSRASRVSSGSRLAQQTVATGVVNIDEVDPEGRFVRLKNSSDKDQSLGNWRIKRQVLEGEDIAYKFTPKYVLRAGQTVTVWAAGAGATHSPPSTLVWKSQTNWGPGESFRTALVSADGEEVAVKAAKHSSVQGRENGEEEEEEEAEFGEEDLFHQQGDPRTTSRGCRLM

[3] = target: T1, AEA-DA lipid probe targets in Neuro2a cells (Mus musculus, UniProt P45878); settings: protein Fkbp2, Neuro2a cells
T1 sequence (P45878 23-140): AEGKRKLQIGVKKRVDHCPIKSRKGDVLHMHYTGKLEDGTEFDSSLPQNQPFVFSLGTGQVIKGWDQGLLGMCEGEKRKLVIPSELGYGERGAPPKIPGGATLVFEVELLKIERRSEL

[4] = Neg, m/z 716.52, RT 32.28 min, versus DMSO
[5] = Neg, m/z 721.50, RT 30.94 min, versus DMSO
[6] = Neg, m/z 786.53, RT 31.97 min, versus DMSO
[7] = Neg, m/z 788.54, RT 34.16 min, versus DMSO
[8] = Neg, m/z 808.51, RT 30.14 min, versus DMSO
[9] = Pos, m/z 788.61, RT 35.81 min, versus DMSO

CN1CCN(C(=O)c2[nH]c3ccc([N+](=O)[O-])cc3c2-c2ccccc2)CC1 [MJN228, (4-Methylpiperazin-1-yl)(5-nitro-3-phenyl-1H-indol-2-yl)methanone]
Fold Change, FFA 16:0 ([1]; Neg, m/z 255.23, RT 14.24 min, versus DMSO): 1.17 fold | Fold Change, FFA 18:1 ([1]; Neg, m/z 281.25, RT 15.75 min, versus DMSO): 1.23 fold | Fold Change, FFA 18:0 ([1]; Neg, m/z 283.26, RT 20.89 min, versus DMSO): 1.22 fold | Fold Change, FFA 20:4 ([1]; Neg, m/z 303.23, RT 12.39 min, versus DMSO): 1.17 fold | Fold Change, NAT 24:1 ([1]; Neg, m/z 444.31, RT 9.31 min, versus DMSO): 2.51 fold | Fold Change, NAT 24:0 ([1]; Neg, m/z 446.33, RT 13.76 min, versus DMSO): 2.29 fold | Fold Change, LPE 16:0 ([1]; Neg, m/z 452.28, RT 5.02 min, versus DMSO): 1.25 fold | Fold Change, NAT 26:0 ([1]; Neg, m/z 474.36, RT […], versus DMSO): 2.75 fold | Fold Change, LPE 18:1 ([1]; Neg, m/z 478.29, RT 5.66 min, versus DMSO): 1.50 fold | Fold Change, LPE 18:0 ([1]; Neg, m/z 480.31, RT 7.96 min, versus DMSO): 1.43 fold | Fold Change, feature m/z 596.39 ([1]; Neg, m/z 596.39, RT […], versus DMSO): 2.02 fold | Fold Change, feature m/z 622.41 ([1]; Neg, m/z 622.41, RT 12.66 min, versus DMSO): 2.06 fold | Fold Change, PA 34:1 ([1]; Neg, m/z 673.48, RT 33.41 min, versus DMSO): 1.01 fold | Change (direction), PE 34:1 [1, 4]: DOWN | Fold Change, PE 34:1 [1, 4]: 1.35 fold | Change (direction), PG 32:0 [1, 5]: DOWN | Fold Change, PG 32:0 [1, 5]: 1.26 fold | Fold Change, PE 36:4 ([1]; Neg, m/z 738.51, RT 33.92 min, versus DMSO): 1.46 fold | Fold Change, PG 34:1 ([1]; Neg, m/z 747.52, RT 32.95 min, versus DMSO): 1.22 fold | Fold Change, PG 34:0 ([1]; Neg, m/z 749.53, RT 34.04 min, versus DMSO): 1.24 fold | Fold Change, PS 34:1 ([1]; Neg, m/z 760.51, RT 31.80 min, versus DMSO): 1.07 fold | Fold Change, PE 38:5 ([1]; Neg, m/z 764.52, RT 35.18 min, versus DMSO): 1.02 fold | Fold Change, PE 38:4 ([1]; Neg, m/z 766.54, RT 36.76 min, versus DMSO): 1.01 fold | Fold Change, PG 36:1 ([1]; Neg, m/z 775.55, RT 34.70 min, versus DMSO): 1.02 fold | Change (direction), PS 36:2 [1, 6]: DOWN | Fold Change, PS 36:2 [1, 6]: 1.11 fold | Change (direction), PS 36:1 [1, 7]: DOWN | Fold Change, PS 36:1 [1, 7]: 1.03 fold | Change (direction), PS 38:5 [1, 8]: DOWN | Fold Change, PS 38:5 [1, 8]: 1.05 fold | elevation of metabolites (NAEs and NATs) versus DMSO ([1]; Neuro2a cells, P<0.0001): ≥ 2 fold | Fold Change, NAE 18:1 ([1]; Pos, m/z 326.30, RT 8.36 min, versus DMSO): 2.91 fold | Fold Change, NAE 18:0 ([1]; Pos, m/z 328.32, RT 12.20 min, versus DMSO): 2.00 fold | Fold Change, MAG 16:0 ([1]; Pos, m/z 331.28, RT 8.51 min, versus DMSO): 1.67 fold | Fold Change, MAG 18:1 ([1]; Pos, m/z 358.30, RT 9.68 min, versus DMSO): 1.37 fold | Fold Change, feature m/z 371.10 ([1]; Pos, m/z 371.10, RT 13.51 min, versus DMSO): 2.00 fold | Fold Change, LPC 18:1 ([1]; Pos, m/z 522.35, RT 5.29 min, versus DMSO): 1.24 fold | Fold Change, LPC 18:0 ([1]; Pos, m/z 524.37, RT 7.49 min, versus DMSO): 1.48 fold | Fold Change, LPC 20:4 ([1]; Pos, m/z 544.34, RT 5.29 min, versus DMSO): 1.69 fold | Fold Change, feature m/z 669.22 ([1]; Pos, m/z 669.22, RT 13.52 min, versus DMSO): 2.15 fold | Fold Change, feature m/z 704.21 ([1]; Pos, m/z 704.21, RT 19.42 min, versus DMSO): 2.45 fold | Fold Change, feature m/z 705.21 ([1]; Pos, m/z 705.21, RT 19.44 min, versus DMSO): 2.63 fold | Fold Change, feature m/z 743.24 ([1]; Pos, m/z 743.24, RT 19.42 min, versus DMSO): 2.56 fold | Fold Change, feature m/z 744.24 ([1]; Pos, m/z 744.24, RT 19.44 min, versus DMSO): 2.88 fold | Fold Change, feature m/z 745.24 ([1]; Pos, m/z 745.24, RT 19.44 min, versus DMSO): 2.81 fold | Fold Change, PC 34:0 ([1]; Pos, m/z 762.60, RT 36.86 min, versus DMSO): 1.00 fold | Fold Change, feature m/z 776.23 ([1]; Pos, m/z 776.23, RT 25.46 min, versus DMSO): 2.50 fold | Fold Change, feature m/z 777.23 ([1]; Pos, m/z 777.23, RT 25.48 min, versus DMSO): 2.52 fold | Fold Change, feature m/z 778.23 ([1]; Pos, m/z 778.23, RT 25.47 min, versus DMSO): 2.41 fold | Fold Change, feature m/z 779.23 ([1]; Pos, m/z 779.23, RT 25.47 min, versus DMSO): 2.59 fold | Change (direction), PC 36:1 [1, 9]: DOWN | Fold Change, PC 36:1 [1, 9]: 1.04 fold | Fold Change, feature m/z 817.26 ([1]; Pos, m/z 817.26, RT 25.47 min, versus DMSO): 2.35 fold | Fold Change, feature m/z 818.26 ([1]; Pos, m/z 818.26, RT 25.47 min, versus DMSO): 2.51 fold | Fold Change, feature m/z 819.26 ([1]; Pos, m/z 819.26, RT 25.46 min, versus DMSO): 2.85 fold | Fold Change, feature m/z 820.26 ([1]; Pos, m/z 820.26, RT 25.47 min, versus DMSO): 2.79 fold | Fold Change, feature m/z 850.25 ([1]; Pos, m/z 850.25, RT 30.92 min, versus DMSO): 2.42 fold | Fold Change, feature m/z 851.25 ([1]; Pos, m/z 851.25, RT 30.92 min, versus DMSO): 2.41 fold | Fold Change, feature m/z 852.25 ([1]; Pos, m/z 852.25, RT 30.92 min, versus DMSO): 2.46 fold | Fold Change, feature m/z 853.25 ([1]; Pos, m/z 853.25, RT 30.92 min, versus DMSO): 2.61 fold | Fold Change, feature m/z 924.27 ([1]; Pos, m/z 924.27, RT 33.83 min, versus DMSO): 2.14 fold | Fold Change, feature m/z 925.27 ([1]; Pos, m/z 925.27, RT 33.83 min, versus DMSO): 2.19 fold | Fold Change, feature m/z 926.27 ([1]; Pos, m/z 926.27, RT 33.84 min, versus DMSO): 2.27 fold | Fold Change, feature m/z 927.27 ([1]; Pos, m/z 927.27, RT 33.83 min, versus DMSO): 2.19 fold | SILAC ratio (AEA-DA competition) [2]: 1.9 | SILAC ratio (AEA-DA competition) ([3]; competitor 10 μM): 1.1 | SILAC ratio (AEA-DA competition) ([3]; competitor 25 μM): 1.6 | SILAC ratio (AEA-DA competition) ([3]; competitor 100 μM): 1.1

— patent US10168342B2, “Lipid probes and uses thereof” (THE SCRIPPS RESEARCH INSTITUTE, priority 2015, dated 2019)
